Assay results from patent US7112574B2, “C2,8-disubstituted adenosine derivatives and their different uses” (priority 2001, dated 2006).
Read-outs that look alike come from different tables or passages of the source.

What was measured:
[1] = target: human adenosine A2A receptors (Homo sapiens, UniProt P29274); conditions: for agonist behaviour (intrinsic activity) at the adenosine A2A receptor: cAMP production compared to reference agonist CGS 21680, words
Description: CHO cells expressing the human adenosine A2A receptors were grown overnight as a monolayer in 24 wells tissue culture plates (400 μl/well; 2×10^5 cells/well). cAMP generation was performed in Dulbecco's Modified Eagles Medium (DMEM)/N-2-hydroxyethylpiperazin-N′-2-ethansulfonic acid HEPES) buffer (0.60 g HEPES/50 ml DMEM pH 7.4). To each well, washed three times with DMEM/HEPES buffer (250 μl), 100 μl DMEM/HEPES buffer, 100 μl adenosine deaminase (final concentration 5 IU/ml) and 100 μl of a mixture of rolipram and cilostamide (final concentration 50 μM each) were added. After incubation for 40 minutes at 37° C., 100 μL agonist was added. After 15 minutes at 37° C., the reaction was terminated by removing the medium and adding 200 μl 0.1 M HCl. Wells were stored at −20° C. until assay.
The amounts of cAMP were determined after a protocol with cAMP binding protein^12 with the following minor modifications. As a buffer was used 150 mM K2HPO4/10 mM EDTA/0.2% Bovine Serum Albumine (BSA) at pH 7.5. Samples (20 μl+30 μl 0.1 M HCl) were incubated for at least 2.5 hours at 0° C. before filtration over Whatman GF/B filters. […] Filters were counted in Packard Emulsifier Safe scintillation fluid (3.5 ml) after 24 hours of extraction.
All compounds prepared were also tested in a functional assay.

adenosine A1 receptor = target: T1, adenosine A1 receptor (Rattus norvegicus, UniProt P25099); assay: biochemical; conditions: for inhibition at 10 µM: read-out: % displacement at 10^-5 M, A1
T1 sequence (P25099 1-326): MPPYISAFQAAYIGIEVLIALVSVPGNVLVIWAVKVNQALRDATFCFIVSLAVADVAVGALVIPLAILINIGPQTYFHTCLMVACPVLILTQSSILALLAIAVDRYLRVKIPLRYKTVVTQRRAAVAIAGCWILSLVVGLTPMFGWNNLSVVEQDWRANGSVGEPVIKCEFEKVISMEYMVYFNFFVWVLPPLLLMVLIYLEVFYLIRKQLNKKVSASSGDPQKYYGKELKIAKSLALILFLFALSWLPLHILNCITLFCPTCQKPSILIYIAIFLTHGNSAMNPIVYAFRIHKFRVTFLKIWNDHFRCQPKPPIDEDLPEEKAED
Description: (§1) Incubations were carried out for 1 hr at 37° C. and were terminated by rapid filtration over Whatman GF/B filters, using a Brandell cell harvester (Brandell, Gaithersburg, Md.). Tubes were washed three times with 3 ml of buffer. Radioactivity was determined in a Beckman 5500B γ-counter. Nonspecific binding was determined in the presence of 10^−5 M R-PIA.
(§2) All compounds prepared were tested in radioligand binding assays to determine their affinities for the adenosine A1 receptor in rat brain cortex, the A2A receptor in rat striatum and the human A3 receptor as expressed in HEK 293 cells (Table 2, hereinafter). The Ki values were computed from the displacement curves obtained by nonlinear regression of the competition curves with the software package Prism (Graph Pad, San Diego, Calif.)
(§3) For the adenosine A1 receptor, the tritiated antagonist, [^3H]-1,3-dipropyl-8-cyclopentylxanthine ([^3H]DPCPX), and for the adenosine A2A receptor, the tritiated antagonist [^3H]ZM 241385 were used. Since radiolabeled antagonists are not commercially available for the adenosine A3 receptor, [125I]AB-MECA, an A3 receptor agonist, was used. Displacement experiments were performed in the absence of GTP.

human A3 receptor = target: T2, human A3 receptor (Homo sapiens, UniProt P0DMS8); assay: Radioligand binding, displacement of [125I]AB-MECA from human A3 receptor expressed in HEK 293 cells; conditions: for % displacement at 10^-5 M, A3: 10 μM, n=2, mean value
T2 construct: expressed in transfected cells; host or cells: HEK 293
T2 sequence (P0DMS8 1-318): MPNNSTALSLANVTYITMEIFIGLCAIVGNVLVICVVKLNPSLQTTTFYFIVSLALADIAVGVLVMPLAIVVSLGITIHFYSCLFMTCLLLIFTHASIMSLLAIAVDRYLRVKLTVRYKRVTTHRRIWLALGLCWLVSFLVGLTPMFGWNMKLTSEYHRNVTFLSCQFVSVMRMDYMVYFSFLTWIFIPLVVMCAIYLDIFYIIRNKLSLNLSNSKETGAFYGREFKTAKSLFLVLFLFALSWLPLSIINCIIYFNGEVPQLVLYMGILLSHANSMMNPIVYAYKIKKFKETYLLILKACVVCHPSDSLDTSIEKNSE
Description: as §1, §2, §3

adenosine A2A receptor = adenosine A2A receptor (Rattus norvegicus, UniProt P30543); assay: biochemical; conditions: for A3/A2A: ratio of Ki A3 (human) to Ki A2A (rat); for % displacement at 10^-5 M, A2A: [3H]ZM241385, rat striatal membranes, 10 μM, n=2, mean value
Description: as §1, §2, §3

[2] = [125I]AB-MECA, human A3 receptor in HEK 293 cells

Nc1nc(I)nc2c1ncn2[C@@H]1O[C@H](CO)[C@@H](O)[C@H]1O [Compound 1, 2-Iodoadenosine]
% cAMP production hA2A [1]: 126% (118–134)
agonist behaviour (intrinsic activity) at the adenosine A2A receptor [1]: full agonist
inhibition at 10 µM (adenosine A1 receptor): 36.1%

CCCCC#Cc1nc(N)c2ncn([C@@H]3O[C@H](CO)[C@@H](O)[C@H]3O)c2n1 [Compound 3, 2-(1-hexynyl)adenosine]
Ki (human A3 receptor; [125I]AB-MECA, human A3 receptor in HEK 293 cells, ±SEM, n=3, read-out: Ki A3): 16.9 ± 4.1 nM
% cAMP production hA2A [1]: 61% (58–64)
agonist behaviour (intrinsic activity) at the adenosine A2A receptor [1]: partial agonism

CCCC/C=C/c1nc(N)c2ncn([C@@H]3O[C@H](CO)[C@@H](O)[C@H]3O)c2n1 [Compound 4, 2-((E)-1-hexenyl)adenosine]
Ki (human A3 receptor): 73.5 ± 7.7 nM
% cAMP production hA2A [1]: 82% (78–86)
agonist behaviour (intrinsic activity) at the adenosine A2A receptor [1]: partial agonism
Ki (adenosine A2A receptor): 26.2 ± 1.8 nM
A3/A2A (adenosine A2A receptor): 2.78
inhibition at 10 µM (adenosine A1 receptor): 53.1%

Nc1nc(I)nc2c1nc(Br)n2[C@@H]1O[C@H](CO)[C@@H](O)[C@H]1O [Compound 5, 2-iodo-8-bromoadenosine]
% displacement at 10^-5 M, A3 (human A3 receptor; [2]): 6.2%
% displacement at 10^-5 M, A2A (adenosine A2A receptor): 43.1%
inhibition at 10 µM (adenosine A1 receptor): 21.6%

CNc1nc2c(N)nc(I)nc2n1[C@@H]1O[C@H](CO)[C@@H](O)[C@H]1O [Compound 7, 2-Iodo-8-methylaminoadenosine]
Ki (human A3 receptor): 7310 ± 440 nM
% cAMP production hA2A [1]: 23% (20–25)
melting point: 162 to 164 °C
% displacement at 10^-5 M, A2A (adenosine A2A receptor): 43.3%
inhibition at 10 µM (adenosine A1 receptor): 35.2%

CCNc1nc2c(N)nc(I)nc2n1[C@@H]1O[C@H](CO)[C@@H](O)[C@H]1O [Compound 8, 2-iodo-8-ethylaminoadenosine]
Ki (human A3 receptor): 5110 ± 890 nM
% cAMP production hA2A [1]: 77% (76–78)
melting point: 205 to 207 °C
% displacement at 10^-5 M, A2A (adenosine A2A receptor): 40.6%
inhibition at 10 µM (adenosine A1 receptor): 35.2%

CCCNc1nc2c(N)nc(I)nc2n1[C@@H]1O[C@H](CO)[C@@H](O)[C@H]1O [Compound 9, 2-Iodo-8-propylaminoadenosine]
Ki (human A3 receptor): 8670 ± 2000 nM
melting point: 160 to 162 °C
% displacement at 10^-5 M, A2A (adenosine A2A receptor): 50.7%
inhibition at 10 µM (adenosine A1 receptor): 40.2%

CCCCNc1nc2c(N)nc(I)nc2n1[C@@H]1O[C@H](CO)[C@@H](O)[C@H]1O [Compound 10, 2-Iodo-8-butylaminoadenosine]
% displacement at 10^-5 M, A3 (human A3 receptor; [2]): 43.1%
% cAMP production hA2A [1]: 28% (27–30)
Ki (adenosine A2A receptor): 3110 ± 1650 nM
inhibition at 10 µM (adenosine A1 receptor): 28.2%

Nc1nc(I)nc2c1nc(NCc1ccccc1)n2[C@@H]1O[C@H](CO)[C@@H](O)[C@H]1O [Compound 11, 2-iodo-8-benzylaminoadenosine]
% displacement at 10^-5 M, A3 (human A3 receptor; [2]): 39.5%
% cAMP production hA2A [1]: 125% (92–157)
agonist behaviour (intrinsic activity) at the adenosine A2A receptor [1]: full agonists
% displacement at 10^-5 M, A2A (adenosine A2A receptor): 44.7%
inhibition at 10 µM (adenosine A1 receptor): 35.5%

CCCCC#Cc1nc(N)c2nc(NC)n([C@@H]3O[C@H](CO)[C@@H](O)[C@H]3O)c2n1 [Compound 12, 2-(1-Hexynyl)-8-methylaminoadenosine]
Ki (human A3 receptor): 5640 ± 780 nM
% cAMP production hA2A [1]: 85% (85–86)
Ki (adenosine A2A receptor): 115 nM
A3/A2A (adenosine A2A receptor): 49.0
inhibition at 10 µM (adenosine A1 receptor): 31.6%

CCCCC#Cc1nc(N)c2nc(NCC)n([C@@H]3O[C@H](CO)[C@@H](O)[C@H]3O)c2n1 [Compound 13, 2-(1-hexynyl)-8-ethylaminoadenosine]
Ki (human A3 receptor): 8830 ± 1230 nM
% cAMP production hA2A [1]: 134% (124–143)
agonist behaviour (intrinsic activity) at the adenosine A2A receptor [1]: full agonist
Ki (adenosine A2A receptor): 253 ± 29 nM
A3/A2A (adenosine A2A receptor): 34.9
inhibition at 10 µM (adenosine A1 receptor): 30.9%

CCCCC#Cc1nc(N)c2nc(NCCC)n([C@@H]3O[C@H](CO)[C@@H](O)[C@H]3O)c2n1 [Compound 14, 2-(1-Hexynyl)-8-propylaminoadenosine]
Ki (human A3 receptor): 2160 ± 120 nM
% cAMP production hA2A [1]: 58% (50–66)
melting point: 184 to 186 °C
Ki (adenosine A2A receptor): 82 nM
selectivity for the adenosine A2A receptor compared to A3 (adenosine A2A receptor; from Ki values): ~26 fold
A3/A2A (adenosine A2A receptor): 26.3
inhibition at 10 µM (adenosine A1 receptor): 47.6%

CCCCC#Cc1nc(N)c2nc(NCCCC)n([C@@H]3O[C@H](CO)[C@@H](O)[C@H]3O)c2n1 [Compound 15, 2-(1-hexynyl)-8-butylaminoadenosine]
% displacement at 10^-5 M, A3 (human A3 receptor; [2]): 64.3%
% cAMP production hA2A [1]: 72% (63–82)
melting point: 182 to 184 °C
Ki (adenosine A2A receptor): 149 ± 29 nM
Ki (adenosine A1 receptor): 539 ± 380 nM

CCCCC#Cc1nc(N)c2nc(NCc3ccccc3)n([C@@H]3O[C@H](CO)[C@@H](O)[C@H]3O)c2n1 [Compound 16, 2-(1-hexynyl)-8-Benzylaminoadenosine]
Ki (human A3 receptor): 7970 ± 610 nM
% cAMP production hA2A [1]: 83% (61–106)
agonist behaviour (intrinsic activity) at the adenosine A2A receptor [1]: full agonists
melting point: 141 to 143 °C
% displacement at 10^-5 M, A2A (adenosine A2A receptor): 35.4%
Ki (adenosine A1 receptor): 756 ± 483 nM

CCCC/C=C/c1nc(N)c2nc(NCCCC)n([C@@H]3O[C@H](CO)[C@@H](O)[C@H]3O)c2n1 [Compound 20, 2-((E)-1-hexenyl)-8-butylaminoadenosine]
% displacement at 10^-5 M, A3 (human A3 receptor; [2]): 47.4%
% cAMP production hA2A [1]: 36% (33–40)
Ki (adenosine A2A receptor): 580 ± 250 nM
Ki (adenosine A1 receptor): 906 ± 264 nM

CCCCC#Cc1nc(N)c2nc(C#CCCCC)n([C@@H]3O[C@H](CO)[C@@H](O)[C@H]3O)c2n1 [Compound 22, 2,8-di-(1-hexynyl)adenosine]
Ki (human A3 receptor): 254 ± 34 nM
% cAMP production hA2A [1]: 99% (98–99)
agonist behaviour (intrinsic activity) at the adenosine A2A receptor [1]: full agonists
% displacement at 10^-5 M, A2A (adenosine A2A receptor): 28.7%
inhibition at 10 µM (adenosine A1 receptor): 50.3%

Nc1nc(NCc2ccccc2)nc2c1nc(NCc1ccccc1)n2[C@@H]1O[C@H](CO)[C@@H](O)[C@H]1O [Compound 23, 2,8-di-benzylaminoadenosine]
% displacement at 10^-5 M, A3 (human A3 receptor; [2]): 54.1%
% cAMP production hA2A [1]: 95% (90–100)
agonist behaviour (intrinsic activity) at the adenosine A2A receptor [1]: full agonists
% displacement at 10^-5 M, A2A (adenosine A2A receptor): 11.6%
inhibition at 10 µM (adenosine A1 receptor): 50.2%
